In patent publication US20240287139A1, “A NOVEL COMPOUND ACTING AGAINST A SELECT GROUP OF BACTERIA” (priority 2021, published 2024):
Where “and” joins values, the source holds several entries; their conditions need not be identical. Identical values can stand only once. *1 amine or outer side, *2 acyl side, *3 side chain or, on linkers, in order; H or OH if unused. Where a SMILES comes first, the peptide text is derived from it. Bridges are numbered along the chain shown (N, C = ends). [ ]: non-standard residue; d: D form. The star is where a group is joined. ξ: configuration not given here. ξThr(3R)(O-yl) = C[C@@H](O[*:3])C(N[*:1])C(=O)[*:2]; βAsp = O=C(O)[C@H](CC(=O)[*:2])N[*:1]; His(π-Me) = Cn1cncc1C[C@H](N)C(=O)O; For = O=C*

Columns and labels:
MtbGyrase GyrA mutants = format: biochemical, M. tuberculosis
[1] = test system: M. tuberculosis H37Rv mc^26020
[2] = test system: M. tuberculosis bacA mutants (L469P, L470P and S577R; bacA deletion mutant); format: cell-based
[3] = test system: M. tuberculosis GyrA D94N mutant; format: cell-based

Structure (SMILES): C[C@H]1OC(=O)C[C@@H](C(=O)O)NC(=O)[C@H](CO)NC(=O)[C@@H](CCCNC(=N)N)NC(=O)CNC(=O)[C@H](Cc2ccccc2)NC(=O)[C@@H](CO)NC(=O)C[C@@H](C(=O)O)NC(=O)[C@H](Cc2cncn2C)NC(=O)C1NC(=O)[C@@H](CCCNC(=N)N)NC(=O)[C@@H](NC(=O)[C@H](Cc1c[nH]c2ccccc12)NC=O)[C@@H](C)O (stereo partly drawn) [compound of Formula IV] (For-WT[dR][ξThr(3R)(O-yl)][His(π-Me)][βAsp][dS]FG[dR]SD-OH; ester 4-12)
- drug-induced cleavage with MtbGyrAP353L and MtbGyrAA32V (MtbGyrase GyrA mutants): relatively strong resistance
- reduced cleavage compared to wildtype MtbGyrase (MtbGyrase GyrA mutants): 5 to 100 fold
- frequency of highly resistant mutants [1]: 6.1×10^−9 to 1.7×10^−8
- frequency of resistant mutants [1]: 7.2×10^−6 to 1.6×10^−5
- MIC against bacA mutants [2]: 8 to 16 µg/mL and 8 µg/mL
- MIC against bacA mutants as multiple of wild-type MIC [2]: 32-64 ×MIC and 32 ×MIC
- MIC [3]: 0.25 µg/mL
